Results from patent US8802693B1, “Azaadamantane derivatives and methods of use” (priority 2011, dated 2014).

Tests used:
Assay type in all cases: in vivo, human
[1] = tested on: subjects with mild-to-moderate Alzheimer's disease; test: Phase 2a Clinical Study A: ADAS-cog (13-item) total score; conditions: for ADAS-cog (13-Item) Total Score Observed Mean (SD) Final: final evaluation, 12-week treatment
Experimental: (§1) A Phase 2a proof-of-concept (POC) study in subjects with mild-to-moderate dementia of Alzheimer type was conducted. The study was a randomized, double-blind, placebo- and active-controlled, multicenter study designed to evaluate the efficacy and safety of Compound A (ABT-126) in subjects diagnosed with mild-to-moderate Alzheimer's disease, defined as meeting National Institute of Neurological and Communicative Disorders and Stroke/Alzheimer's Disease and Related Disorders Association (NINCDS/ADRDA) criteria for probable AD. […] Subjects were randomized in an equal ratio to one of four treatment groups (placebo, 5 mg Compound A, 25 mg Compound A, or donepezil) for a 12-week treatment period. The primary efficacy measure was the Alzheimer's Disease Assessment Scale—cognitive subscale (ADAS-Cog). Subjects were generally in good health and any chronic medical conditions were stable during the time of screening. Subjects were not taking other medication for Alzheimer's disease.
(§2) The study was a Phase 2, randomized, double-blind, placebo- and active-controlled, multicenter study designed to evaluate the dose-response relationship and safety of two doses of Compound A in subjects diagnosed with mild to moderate AD, defined as meeting NINCDS/ADRDA criteria for probable AD.
(§3) The study consisted of a Screening Period of up to 28 days, a 12-week treatment period, and a post-treatment period. The screening period consisted of three visits: Screening Visit 1, Screening Visit 2, and Day −1. Upon completion of Day −1 procedures, eligible subjects were randomized through an Interactive Voice Response/Interactive Web-Based (IVR/IWB) system. Subjects were randomized in an equal ratio to one of four treatment groups (placebo, 5 mg Compound A, 25 mg Compound A, or donepezil).
(§4) Each subject was instructed to take study drug once-daily in the morning for 12 weeks. Subjects randomized to donepezil took 5 mg donepezil QD for the first 4 weeks and began 10 mg donepezil QD at Week 4 through the remainder of the study. The subject and investigator were blinded to the treatment assignment throughout the study.
(§5) The primary efficacy measure was the Alzheimer's Disease Assessment Scale-cognitive subscale (ADAS-cog). The ADAS-cog was designed to assess the cognitive impairments most common in AD. The ADAS-cog is a subscale of the ADAS, which focuses on cognitive functioning and memory. Two versions were used in the study: an 11-item version and an expanded (13-item) version. The 11-item version of the ADAS-cog was the primary endpoint measure in this study. ADAS-Cog (13-item) was administered throughout the study and the primary efficacy variable was considered the change from baseline to final evaluation on the ADAS-cog total score (11-item).
The 13-item ADAS-cog is comprised of the 11-item ADAS-cog with two additional items (Delayed Word Recall and a Number Cancellation Test) that are designed to assess attention and concentration. The Delayed Word Recall Test (range from 0 to 10) was an addition to the Word Recall Test to enhance sensitivity of the instrument in assessing cognition functioning on patients with mild AD. The Number Cancellation Test (range from 0 to 5) was reliable and sensitive to a broad range of dementia severity, and was recommended as a useful addition to the 11-item ADAS-cog. The total score of the 13-item ADAS-cog ranges from 0 to 85, with a higher score representing greater impairment. The ADAS-cog (13-item) was administered by a certified rater at Screening Visit 1, Screening Visit 2, and Day-1, as well as Weeks 4, 8, and 12 during the study.

[2] = tested on: subjects with mild-to-moderate Alzheimer's disease; test: Phase 2a Clinical Study A: safety and tolerability
Experimental: as §1, §2, §4
(§6) Subjects completed 4 visits during the treatment period at Week 2, Week 4, Week 8 and Week 12. Subjects returned to the study site for a follow-up visit approximately 2 weeks after the Week 12 or premature discontinuation visit for a safety evaluation. In addition, study site personnel contacted each subject's caregiver by telephone approximately 30 days after the subject's last dose of study drug to ascertain the subject's safety status.

[3] = tested on: subjects with mild-to-moderate Alzheimer's disease; test: Phase 2a Clinical Study A: ADAS-cog (11-item) total score; conditions: for ADAS-cog (11-Item) Total Score Observed Mean (SD) Final: final evaluation, 12-week treatment; for efficacy in treatment of core symptoms of Alzheimer's disease in human patients (summary in words): Phase 2a study, dose not stated
Experimental: as §1, §2, §3, §4, §6, §5
The 11-item ADAS-cog includes the following tests: Word Recall, Commands, Constructional Praxis, Naming Objects and Fingers, Ideational Praxis, Orientation, Word Recognition, Remembering Test Instructions, Comprehension of Spoken Language, Spoken Language Ability, and Word Finding Difficulty. The total score of the 11-item ADAS-cog ranges from 0 to 70, with a higher score representing greater impairment.
The primary efficacy variable was the change from baseline to the final observation on the ADAS-cog (11-item) total score. The primary efficacy analysis was carried out using an ANCOVA model with treatment and study site as the main effects and baseline score as the covariate. […]

[4] = 5 mg QD, ANCOVA, baseline to final evaluation
[5] = 25 mg QD, ANCOVA, baseline to final evaluation

Structure (SMILES): c1ccc(-c2nnc(O[C@@H]3C4CC5C[C@H]3CN(C5)C4)s2)cc1 [Compound A, (4s)-4-(5-phenyl-1,3,4-thiadiazol-2-yloxy)-1-azatricyclo[3.3.1.1^3,7]decane]
- ADAS-cog (13-Item) Total Score Difference From Placebo LS Mean (SE) of Difference [1, 4]: −0.13 (1.03)
- ADAS-cog (13-Item) Total Score LS Mean (SE) of Change [1, 4]: −0.90 (0.73)
- ADAS-cog (13-Item) Total Score Observed Mean (SD) change ([1]; 5 mg QD, Change to Week 4): −0.67 (4.31)
- ADAS-cog (13-Item) Total Score Observed Mean (SD) change ([1]; 5 mg QD, Change to Week 8): −0.76 (5.88)
- ADAS-cog (13-Item) Total Score Observed Mean (SD) change ([1]; 5 mg QD, Change to Week 12): −1.20 (6.36)
- ADAS-cog (13-Item) Total Score Difference From Placebo LS Mean (SE) of Difference ([1]; 5 mg QD, MMRM, Week 4): −0.30 (0.73)
- ADAS-cog (13-Item) Total Score LS Mean (SE) of Change from Baseline ([1]; 5 mg QD, MMRM, Week 4): −0.30 (0.52)
- ADAS-cog (13-Item) Total Score Difference From Placebo LS Mean (SE) of Difference ([1]; 5 mg QD, MMRM, Week 8): −0.29 (0.95)
- ADAS-cog (13-Item) Total Score LS Mean (SE) of Change from Baseline ([1]; 5 mg QD, MMRM, Week 8): −0.64 (0.67)
- ADAS-cog (13-Item) Total Score Difference From Placebo LS Mean (SE) of Difference ([1]; 5 mg QD, MMRM, Week 12): 0.15 (1.04)
- ADAS-cog (13-Item) Total Score LS Mean (SE) of Change from Baseline ([1]; 5 mg QD, MMRM, Week 12): −0.99 (0.73)
- ADAS-cog (13-Item) Total Score Observed Mean (SD) Final ([1]; 5 mg QD): 35.92 (12.07)
- ADAS-cog (13-Item) Total Score Difference From Placebo LS Mean (SE) of Difference [1, 5]: −1.83 (1.05)
- ADAS-cog (13-Item) Total Score LS Mean (SE) of Change [1, 5]: −2.60 (0.75)
- ADAS-cog (13-Item) Total Score Observed Mean (SD) change ([1]; 25 mg QD, Change to Week 4): −2.38 (4.72)
- ADAS-cog (13-Item) Total Score Observed Mean (SD) change ([1]; 25 mg QD, Change to Week 8): −2.78 (6.05)
- ADAS-cog (13-Item) Total Score Observed Mean (SD) change ([1]; 25 mg QD, Change to Week 12): −2.89 (6.77)
- ADAS-cog (13-Item) Total Score Difference From Placebo LS Mean (SE) of Difference ([1]; 25 mg QD, MMRM, Week 4): −2.13 (0.75)
- ADAS-cog (13-Item) Total Score LS Mean (SE) of Change from Baseline ([1]; 25 mg QD, MMRM, Week 4): −2.13 (0.53)
- ADAS-cog (13-Item) Total Score Difference From Placebo LS Mean (SE) of Difference ([1]; 25 mg QD, MMRM, Week 8): −2.06 (0.98)
- ADAS-cog (13-Item) Total Score LS Mean (SE) of Change from Baseline ([1]; 25 mg QD, MMRM, Week 8): −2.42 (0.70)
- ADAS-cog (13-Item) Total Score Difference From Placebo LS Mean (SE) of Difference ([1]; 25 mg QD, MMRM, Week 12): −1.61 (1.08)
- ADAS-cog (13-Item) Total Score LS Mean (SE) of Change from Baseline ([1]; 25 mg QD, MMRM, Week 12): −2.74 (0.77)
- ADAS-cog (13-Item) Total Score Observed Mean (SD) Final ([1]; 25 mg QD): 38.08 (13.81)
- tolerability in subjects with AD ([2]; 5 mg and 25 mg QD (doses up to 25 mg QD), 12 weeks): generally well tolerated
- changes in vital signs, ECG parameters or laboratory assessments ([2]; 5 mg and 25 mg QD, 12 weeks): no consistent clinically meaningful changes
- serious adverse events considered by the investigator to be related ([2]; 5 mg and 25 mg QD, 12 weeks): none that were considered by the investigator to be related
- dose dependence of adverse events ([2]; 25 mg group): no evidence for a dose-dependent increase in adverse events
- ADAS-cog (11-Item) Total Score Difference From Placebo LS Mean (SE) of Difference [3, 4]: −0.08
- ADAS-cog (11-Item) Total Score LS Mean (SE) of Change [3, 4]: −0.76 (0.64)
- ADAS-cog (11-Item) Total Score Observed Mean (SD) change ([3]; 5 mg QD, Change to Week 4): −0.36 (4.01)
- ADAS-cog (11-Item) Total Score Observed Mean (SD) change ([3]; 5 mg QD, Change to Week 8): −0.58 (4.83)
- ADAS-cog (11-Item) Total Score Observed Mean (SD) change ([3]; 5 mg QD, Change to Week 12): −1.01 (5.50)
- ADAS-cog (11-Item) Total Score Difference From Placebo LS Mean (SE) of Difference ([3]; 5 mg QD, MMRM, Week 4): 0.03 (0.65)
- ADAS-cog (11-Item) Total Score LS Mean (SE) of Change from Baseline ([3]; 5 mg QD, MMRM, Week 4): −0.06 (0.47)
- ADAS-cog (11-Item) Total Score Difference From Placebo LS Mean (SE) of Difference ([3]; 5 mg QD, MMRM, Week 8): 0.07 (0.81)
- ADAS-cog (11-Item) Total Score LS Mean (SE) of Change from Baseline ([3]; 5 mg QD, MMRM, Week 8): −0.49 (0.57)
- ADAS-cog (11-Item) Total Score Difference From Placebo LS Mean (SE) of Difference ([3]; 5 mg QD, MMRM, Week 12): 0.03 (0.90)
- ADAS-cog (11-Item) Total Score LS Mean (SE) of Change from Baseline ([3]; 5 mg QD, MMRM, Week 12): −0.80 (0.64)
- ADAS-cog (11-Item) Total Score Observed Mean (SD) Final ([3]; 5 mg QD): 24.30 (10.50)
- cognition relative to placebo, ADAS-cog (11-item) MMRM (in words) ([3]; 5 mg, over the 12 weeks): no improvement in cognition relative to placebo
- cognition relative to placebo, ADAS-cog (11-item) MMRM (in words) ([3]; 25 mg): trend toward statistical significance at Weeks 4 and 8 in cognitive improvement
- ADAS-cog (11-Item) Total Score Difference From Placebo LS Mean (SE) of Difference [3, 5]: −1.19
- ADAS-cog (11-Item) Total Score LS Mean (SE) of Change [3, 5]: −1.86 (0.64)
- ADAS-cog (11-Item) Total Score Observed Mean (SD) change ([3]; 25 mg QD, Change to Week 4): −1.18 (4.29)
- ADAS-cog (11-Item) Total Score Observed Mean (SD) change ([3]; 25 mg QD, Change to Week 8): −1.94 (5.12)
- ADAS-cog (11-Item) Total Score Observed Mean (SD) change ([3]; 25 mg QD, Change to Week 12): −2.12 (5.53)
- ADAS-cog (11-Item) Total Score Difference From Placebo LS Mean (SE) of Difference ([3]; 25 mg QD, MMRM, Week 4): −0.84 (0.65)
- ADAS-cog (11-Item) Total Score LS Mean (SE) of Change from Baseline ([3]; 25 mg QD, MMRM, Week 4): −0.94 (0.46)
- ADAS-cog (11-Item) Total Score Difference From Placebo LS Mean (SE) of Difference ([3]; 25 mg QD, MMRM, Week 8): −1.11 (0.82)
- ADAS-cog (11-Item) Total Score LS Mean (SE) of Change from Baseline ([3]; 25 mg QD, MMRM, Week 8): −1.67 (0.58)
- ADAS-cog (11-Item) Total Score Difference From Placebo LS Mean (SE) of Difference ([3]; 25 mg QD, MMRM, Week 12): −1.14 (0.91)
- ADAS-cog (11-Item) Total Score LS Mean (SE) of Change from Baseline ([3]; 25 mg QD, MMRM, Week 12): −1.97 (0.65)
- ADAS-cog (11-Item) Total Score Observed Mean (SD) Final ([3]; 25 mg QD): 26.61 (12.09)
- efficacy (in words) ([3]; 25 mg dose, 12 weeks): Evidence for efficacy
- efficacy in treatment of core symptoms of Alzheimer's disease in human patients (summary in words) [3]: signal for efficacy
- efficacy in treatment of core symptoms of Alzheimer's disease in human patients (summary in words) ([3]; listed as ABT-126): statistically significant efficacy compared to placebo
